From patent publication US20250214942A1, “INHIBITORS OF RECEPTOR INTERACTING PROTEIN KINASE I FOR THE TREATMENT OF DISEASE” (Board of Regents, The University of Texas System, priority 2019, published 2025)

Experiments:
RIPK1 = RIPK1 (Homo sapiens (Human), UniProt Q13546); assay: ADP-Glo kinase assay (RIPK1 activity, conversion of ATP to ADP); type: biochemical; details: 5 nM RIPK1, 50 μM ATP, 6 h reaction; read-out: RIPK1 Enzyme Avg IC50
In short: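 RIPK1 (5 nM final) was preincubated 10 min at rt with 1:3-diluted compounds in HEPES pH 7.5/MgCl2/DTT/BSA/CHAPS buffer. ATP (50 μM final) was then added for 6 h, and ADP formed was read by ADP-Glo luminescence. IC50 values came from four-parameter logistic fitting.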

[1] = tested on: human monocytic cell line U937; assay: Human U937 cellular necroptosis assay (TNFalpha + z-VAD-FMK, Cell Titer-Glo viability); type: cell-based; details: Homo sapiens, U-937, 22 h, U937 cells, 25 ng/mL human TNFalpha + 25 μM z-VAD-FMK, read-out: hU937 Avg IC50
In short: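 Readout is CellTiter-Glo 2.0 luminescence after 22 h at 37° C with compound, in cells triggered by human TNFalpha (25 ng/mL) and z-VAD-FMK (25 μM) in phenol red-free RPMI/10% FBS. Values are run-averaged IC50s from a four-parameter logistic curve.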

RIPK1, sequence (Q13546 1-327): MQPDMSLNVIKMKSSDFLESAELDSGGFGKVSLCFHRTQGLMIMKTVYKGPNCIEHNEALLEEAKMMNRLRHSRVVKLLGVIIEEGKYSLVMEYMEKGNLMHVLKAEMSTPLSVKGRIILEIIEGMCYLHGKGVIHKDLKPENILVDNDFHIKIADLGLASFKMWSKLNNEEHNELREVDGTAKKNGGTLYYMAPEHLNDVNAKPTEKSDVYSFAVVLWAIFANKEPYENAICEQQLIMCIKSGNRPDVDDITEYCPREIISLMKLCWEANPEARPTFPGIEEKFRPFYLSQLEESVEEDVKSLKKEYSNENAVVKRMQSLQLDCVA

Row | IC50 (RIPK1) | Compound | IC50 [1]
1 | 34 nM | O=C(N1N=CCC1c1cc(F)cc(F)c1)C12CC(Cn3nc(Cl)c4ccccc43)(C1)C2 (stereo not drawn) [Example 141, (3-((3-chloro-1H-indazol-1-yl)methyl)bicyclo[1.1.1]-pentan-1-yl)(5-(3,5-difluorophenyl)-4,5-dihydro-1H-pyrazol-1-yl)methanone] | 58 nM
2 | 79 nM | N#Cc1cccc2cn(CC34CC(C(=O)N5N=CCC5c5cc(F)cc(F)c5)(C3)C4)nc12 (stereo not drawn) [Example 142, 2-((3-(5-(3,5-difluorophenyl)-4,5-dihydro-1H-pyrazole-1-carbonyl)bicyclo[1.1.1]pentan-1-yl)methyl)-2H-indazole-7-carbonitrile] | 750 nM
3 | 122 nM | N#Cc1cccc2cnn(CC34CC(C(=O)N5N=CCC5c5cc(F)cc(F)c5)(C3)C4)c12 (stereo not drawn) [Example 143, 1-((3-(5-(3,5-difluorophenyl)-4,5-dihydro-1H-pyrazole-1-carbonyl)bicyclo[1.1.1]-pentan-1-yl)methyl)-1H-indazole-7-carbonitrile] | 495 nM
4 | 169 nM | O=C(N1N=CCC1c1cc(F)cc(F)c1)C12CC(Cn3ncc4c3CCC4)(C1)C2 (stereo not drawn) [Example 145, (5-(3,5-difluorophenyl)-4,5-dihydro-1H-pyrazol-1-yl)(3-((5,6-dihydrocyclopenta[c]-pyrazol-1(4H)-yl)methyl)-bicyclo[1.1.1]pentan-1-yl)methanone] | 701 nM
5 | 324 nM | N#Cc1cnn2ccn(CC34CC(C(=O)N5N=CCC5c5cc(F)cc(F)c5)(C3)C4)c12 (stereo not drawn) [Example 146, 1-((3-(5-(3,5-difluorophenyl)-4,5-dihydro-1H-pyrazole-1-carbonyl)bicyclo[1.1.1]-pentan-1-yl)methyl)-1H-imidazo[1,2-b]pyrazole-7-carbonitrile] | 1920 nM
6 | 242 nM | Cc1cnc(C2CC=NN2C(=O)C23CC(Cn4ncc5ncccc54)(C2)C3)cn1 (stereo not drawn) [Example 151, (3-((1H-pyrazolo[4,3-b]-pyridin-1-yl)methyl)bicyclo-[1.1.1]pentan-1-yl)(5-(5-methylpyrazin-2-yl)-4,5-dihydro-1H-pyrazol-1-yl)methanone] | 1190 nM
7 | 204 nM | Cc1nn(CC23CC(C(=O)N4N=CCC4c4cc(F)cc(F)c4)(C2)C3)c2ccccc12 (stereo not drawn) [Example 153, (5-(3,5-difluorophenyl)-4,5-dihydro-1H-pyrazol-1-yl)(3-((3-methyl-1H-indazol-1-yl)-methyl)bicyclo[1.1.1]pentan-1-yl)methanone] | 553 nM
8 | 42 nM | Cc1cn(CC23CC(C(=O)N4N=CCC4c4cc(F)cc(F)c4)(C2)C3)nc1C#N (stereo not drawn) [Example 157, 1-((3-(5-(3,5-difluorophenyl)-4,5-dihydro-1H-pyrazole-1-carbonyl)bicyclo[1.1.1]-pentan-1-yl)methyl)-4-methyl-1H-pyrazole-3-carbonitrile] | 170 nM
9 | 1120 nM | O=C(N1N=CCC1c1cc(F)cc(F)c1)C12CC(Cn3cc(C4CC4)nn3)(C1)C2 (stereo not drawn) [Example 159, (3-((4-cyclopropyl-1H-1,2,3-triazol-1-yl)methyl)bicyclo-[1.1.1]pentan-1-yl)(5-(3,5-difluorophenyl)-4,5-dihydro-1H-pyrazol-1-yl)methanone] | 3610 nM
10 | 82 nM | COc1cnn(CC23CC(C(=O)N4N=CCC4c4cc(F)cc(F)c4)(C2)C3)c1 (stereo not drawn) [Example 160, (5-(3,5-difluorophenyl)-4,5-dihydro-1H-pyrazol-1-yl)(3-((4-methoxy-1H-pyrazol-1-yl)methyl)bicyclo[1.1.1]-pentan-1-yl)methanone] | 404 nM
11 | 50 nM | O=C(N1N=CCC1c1cc(F)cc(F)c1)C12CC(Cn3cc(F)c4ncc(F)cc43)(C1)C2 (stereo not drawn) [Example 161, (3-((3,6-difluoro-1H-pyrrolo-[3,2-b]pyridin-1-yl)methyl)-bicyclo[1.1.1]pentan-1-yl)(5-(3,5-difluorophenyl)-4,5-dihydro-1H-pyrazol-1-yl)methanone] | 157 nM
12 | 114 nM | N#Cc1cn(CC23CC(C(=O)N4N=CCC4c4cc(F)cc(F)c4)(C2)C3)nn1 (stereo not drawn) [Example 163, 1-((3-(5-(3,5-difluorophenyl)-4,5-dihydro-1H-pyrazole-1-carbonyl)bicyclo[1.1.1]-pentan-1-yl)methyl)-1H-1,2,3-triazole-4-carbonitrile] | 730 nM
13 | 57 nM | COc1ccn(CC23CC(C(=O)N4N=CCC4c4cc(F)cc(F)c4)(C2)C3)n1 (stereo not drawn) [Example 164, (5-(3,5-difluorophenyl)-4,5-dihydro-1H-pyrazol-1-yl)(3-((3-methoxy-1H-pyrazol-1-yl)methyl)bicyclo[1.1.1]-pentan-1-yl)methanone] | 214 nM
14 | 308 nM | N#Cc1cnn(CC23CC(C(=O)N4N=CCC4c4cncc(F)c4)(C2)C3)c1 (stereo not drawn) [Example 166, 1-((3-(5-(5-fluoropyridin-3-yl)-4,5-dihydro-1H-pyrazole-1-carbonyl)bicyclo[1.1.1]-pentan-1-yl)methyl)-1H-pyrazole-4-carbonitrile] | 1970 nM
15 | 306 nM | N#Cc1cnn(CC23CC(C(=O)N4N=CCC4c4cnccn4)(C2)C3)c1 (stereo not drawn) [Example 167, 1-((3-(5-(pyrazin-2-yl)-4,5-dihydro-1H-pyrazole-1-carbonyl)bicyclo[1.1.1]-pentan-1-yl)methyl)-1H-pyrazole-4-carbonitrile] | 1880 nM

The next lines start with the compound.

Row | Compound | IC50 (RIPK1) | IC50 [1]
16 | O=C(N1N=CCC1c1cc(F)cc(F)c1)C12CC(Cn3ccc4cncnc43)(C1)C2 (stereo not drawn) [Example 136, (3-((7H-pyrrolo[2,3-d]-pyrimidin-7-yl)methyl)-bicyclo[1.1.1]pentan-1-yl)(5-(3,5-difluorophenyl)-4,5-dihydro-1H-pyrazol-1-yl)-methanone] | 20 nM | 58 nM
17 | N#Cc1cccc(C2CC=NN2C(=O)C23CC(Cn4cc(C#N)cn4)(C2)C3)c1 (stereo not drawn) [Example 137, 1-((3-(5-(3-cyanophenyl)-4,5-dihydro-1H-pyrazole-1-carbonyl)bicyclo[1.1.1]-pentan-1-yl)methyl)-1H-pyrazole-4-carbonitrile] | 379 nM | 2690 nM
18 | N#Cc1cnn(CC23CC(C(=O)N4N=CCC4c4ccccc4)(C2)C3)c1 (stereo not drawn) [Example 138, 1-((3-(5-phenyl-4,5-dihydro-1H-pyrazole-1-carbonyl)-bicyclo[1.1.1]pentan-1-yl)methyl)-1H-pyrazole-4-carbonitrile] | 113 nM | 417 nM
19 | N#Cc1cccc(C2CC=NN2C(=O)C23CC(Cn4ncc5ncccc54)(C2)C3)c1 (stereo not drawn) [Example 139, 3-(1-(3-((1H-pyrazolo[4,3-b]-pyridin-1-yl)methyl)bicyclo-[1.1.1]pentane-1-carbonyl)-4,5-dihydro-1H-pyrazol-5-yl)benzonitrile] | 95 nM | 493 nM
20 | O=C(N1N=CCC1c1cc(F)cc(F)c1)C12CC(Cn3nc4ccccc4c3Cl)(C1)C2 (stereo not drawn) [Example 140, (3-((3-chloro-2H-indazol-2-yl)methyl)bicyclo[1.1.1]-pentan-1-yl)(5-(3,5-difluorophenyl)-4,5-dihydro-1H-pyrazol-1-yl)methanone] | 49 nM | 53 nM
21 | O=C(N1N=CCC1c1cc(F)cc(F)c1)C12CC(Cn3cc4c(n3)CCC4)(C1)C2 (stereo not drawn) [Example 144, (5-(3,5-difluorophenyl)-4,5-dihydro-1H-pyrazol-1-yl)(3-((5,6-dihydrocyclopenta[c]-pyrazol-2(4H)-yl)methyl)-bicyclo[1.1.1]pentan-1-yl)methanone] | 145 nM | 1180 nM
22 | O=C(N1N=CCC1c1ccccc1)C12CC(Cn3ncc4ncccc43)(C1)C2 (stereo not drawn) [Example 147, (3-((1H-pyrazolo[4,3-b]-pyridin-1-yl)methyl)-bicyclo[1.1.1]pentan-1-yl)(5-phenyl-4,5-dihydro-1H-pyrazol-1-yl)methanone] | 30 nM | 142 nM
23 | Cc1c2ccccc2nn1CC12CC(C(=O)N3N=CCC3c3cc(F)cc(F)c3)(C1)C2 (stereo not drawn) [Example 152, (5-(3,5-difluorophenyl)-4,5-dihydro-1H-pyrazol-1-yl)(3-((3-methyl-2H-indazol-2-yl)-methyl)bicyclo[1.1.1]pentan-1-yl)methanone] | 98 nM | 363 nM
24 | N#CC1CCN(CC23CC(C(=O)N4N=CCC4c4cc(F)cc(F)c4)(C2)C3)C1 (stereo not drawn) [Example 155, 1-((3-(5-(3,5-difluorophenyl)-4,5-dihydro-1H-pyrazole-1-carbonyl)bicyclo[1.1.1]-pentan-1-yl)methyl)-pyrrolidine-3-carbonitrile] | 814 nM | 5290 nM
25 | Cc1cnn(CC23CC(C(=O)N4N=CCC4c4cc(F)cc(F)c4)(C2)C3)c1C#N (stereo not drawn) [Example 156, 1-((3-(5-(3,5-difluorophenyl)-4,5-dihydro-1H-pyrazole-1-carbonyl)bicyclo[1.1.1]-pentan-1-yl)methyl)-4-methyl-1H-pyrazole-5-carbonitrile] | 38 nM | 159 nM
26 | O=C(N1N=CCC1c1cc(F)cc(F)c1)C12CC(Cn3ccn4nccc34)(C1)C2 (stereo not drawn) [Example 158, (3-((1H-imidazo[1,2-b]-pyrazol-1-yl)methyl)-bicyclo[1.1.1]pentan-1-yl)(5-(3,5-difluorophenyl)-4,5-dihydro-1H-pyrazol-1-yl)methanone] | 24 nM | 62 nM
27 | CN(CC12CC(C(=O)N3N=CCC3c3cc(F)cc(F)c3)(C1)C2)c1cc(C#N)ncn1 (stereo not drawn) [Example 162, 6-(((3-(5-(3,5-difluorophenyl)-4,5-dihydro-1H-pyrazole-1-carbonyl)-bicyclo[1.1.1]pentan-1-yl)methyl)(methyl)amino)pyrimidine-4-carbonitrile] | 46 nM | 210 nM
